The values that follow come from patent US11884647B2, “Compounds and methods for targeting pathogenic blood vessels” (THE REGENTS OF THE UNIVERSITY OF CALIFORNIA, priority 2019, dated 2024).

Each structure is given as a SMILES string.

This test has as its system tumor endothelial cells (LL/2 lung cancer tumor). The test is described as follows: Lung LL2 ex vivo model of tumor angiogenesis. The conditions noted are these: for cytotoxicity at 10 µM / cytotoxicity at 40 µM / cytotoxicity at 20 µM: Mus musculus, Endothelial cell, 48 h, read-out: Cell death; for Cell death: Lung LL2 ex vivo, drug treatment two days. The test is classed as cell-based, mouse. The protocol: This example describes a procedure to prepare a primary tumor angiogenesis model for assessing the efficacy of anti-cancer candidate agents.
1. The day before the experiment, spray all necessary tools with 70% ethanol and sterilize them under UV light overnight, including blade, dissecting and micro-dissecting scissors and […]. Place 24-well dishes at 4° C. to pre-chill plates and thaw Matrigel 24 hours before tumor dissection.
2. Spray 70% ethanol on working bench. Prepare two sterile petri dishes with 10 mL sterile PBS. Steps 3 and 4 are for mouse tumor models. For fresh human tumor, directly go to step 5.
3. Euthanize the tumor-bearing mice. Spray 70% ethanol on the mouse and remove the tumor using sterilized dissecting tools (avoid the fur). Rinse the tumor in petri dish with sterile PBS to remove ethanol and fur. Transfer the tumor to a new petri dish with PBS for dissection. Place the dish on ice.
4. Using pre-chilled sterile pipet tips to seed regular Matrigel in 24 well plates on ice. Matrigel (30 μL) is dropped in the middle of each well without touching the edge of the well (avoid introducing bubbles if possible).
5. Cut the tumor in halves using the sterile blade. Identify and isolate healthy tumor tissue that is not necrotic and is within the tumor capsule. Cut the healthy tumor tissue into small pieces. For instance, a suitable size for the tumor tissue is 0.5 mm (H)×0.5 mm (L)×0.3 mm (D) with a total volume of 0.075 mm^3.
6. Gently transfer and embed each tumor piece in the Matrigel drop in the 24-well plate. Place the embedded piece in the bottom and middle of each Matrigel drop. Keep the plate on ice all the time.
7. After seeding the tumor pieces, plates are incubated in a 37° C. cell culture incubator without medium for 10 minutes in order for the Matrigel to solidify.
8. Endothelial Growth Medium (0.5 mL) is added to each well and incubated at 37° C. with 5% CO2. Wait until the new endothelial cells have grown out of the tumor or are larger than 3 mm in diameter until treatment. This usually takes 4 days for the LL2 Lewis lung cancer model and 7 days for the CT26 colon cancer model. For human tumor models, the growth time is typically 2-3 weeks, depending on the tumor type. Media is changed every 4 days during prolonged culture. Typically, when the tumor tissue grows to 2 mm in diameter, it is good for drug testing. A size of about 3 mm in diameter can make visualization easier.
9. When the assay is ready to be analyzed for cell death (e.g., 48 hours after drug addition), prepare the dye mixture by mixing 6 μL of green dye to stain live cells (5 mg/mL Fluorescein diacetate or FDA in DMSO) with 30 μL of red dye (2.5 mg/mL Propidium iodide or PI in PBS) to stain dead cells in an Eppendorf tube. The FDA dye needs to be stored frozen in a −20° C. freezer because it has a labile ester bond.
10. Add 1 μL of the dye mixture to each well of the 24-well dish. It is usually performed one 24-well dish at a time given the amount of time needed to take pictures (the green dye is not as stable in the cells in the long term).
11. Gently rock the dish a few times to mix the dye with the media in the wells and incubate the dish at 37° C. for 10 min (too long incubation can make the green signal too intense).
12. Wash each well with 0.5 mL of sterile PBS and then add 0.5 mL of phenol red free SFM to each well. Alternatively 0.5 mL of regular Endothelial Cell Growth Media can be added to each well if this well needs to be continuously maintained after the experiment.
13. Look through all wells on an inverted microscope using the 2× objective lens to observe morphological changes.
14. Taking pictures in the red and green channels would allow not only the recording of the result but also more accurate quantitation of the result. To take pictures for all the wells, first pick a well that has robust red and green signals. […]

Take `CCCCCCCCCCOc1ccc(S(=O)(=O)c2cnc3ccc([S+](C)[O-])cc3c2N2CCCN(CCN3CCCCC3)CC2)cc1` (stereo not shown) [compound 266, 3-((4-(decyloxy)phenyl)sulfonyl)-6-(methylsulfinyl)-4-(4-(2-(piperidin-1-yl)ethyl)-1,4-diazepan-1-yl)quinoline]: the cytotoxicity at 10 µM came to 5%.
The same measure, in the same setting: in the case of `CCCCOc1ccc(S(=O)(=O)c2cnc3ccc(C(=O)OCC)cc3c2-n2cnnn2)cc1` [compound 186, ethyl 3-((4-butoxyphenyl)sulfonyl)-4-(1H-tetrazol-1-yl)quinoline-6-carboxylate] it was 90%.
Consider `COc1ccc(S(=O)(=O)c2cnc3cc(OC)c(OC)cc3c2N2CCC(O)(c3ccccc3)CC2)cc1` [compound 308, 1-(6,7-dimethoxy-3-((4-methoxyphenyl)sulfonyl)quinolin-4-yl)-4-phenylpiperidin-4-ol], for which the cytotoxicity at 40 µM was 20%.
Same read-out and setting: in the case of `CCCCOc1ccc(S(=O)(=O)c2cnc3ccc(C(=O)OCC)cc3c2N2CCC(N3CCCCCC3)CC2)cc1` [compound 176, ethyl 4-(4-(azepan-1-yl)piperidin-1-yl)-3-((4-butoxyphenyl)sulfonyl)quinoline-6-carboxylate] it was 100%.
Consider `CNC(=O)c1ccc2ncc(S(=O)(=O)c3ccc(OC)cc3)c(N3CCC(N4CCCCC4)CC3)c2c1` [compound 143, 4-([1,4′-bipiperidin]-1′-yl)-3-((4-methoxyphenyl)sulfonyl)-N-methylquinoline-6-carboxamide], for which the Cell death (Conc. 40 μm) was 40%.
As for `CCCCOc1ccc(S(=O)(=O)c2cnc3ccc(SC)cc3c2N2CCCN(S(=O)(=O)NCC(F)(F)F)CC2)cc1` [compound 353, 4-(3-((4-butoxyphenyl)sulfonyl)-6-(methylthio)quinolin-4-yl)-N-(2,2,2-trifluoroethyl)-1,4-diazepane-1-sulfonamide], the Cell death (Conc. 40 μm) is given as 0%.
As for `CCCCOc1ccc(S(=O)(=O)c2cnc3ccc([S+](C)[O-])cc3c2N2CCC(N3CCC(O)CC3)CC2)cc1` (stereo not shown) [compound 168, 1′-(3-((4-butoxyphenyl)sulfonyl)-6-(methylsulfinyl)quinolin-4-yl)-[1,4′-bipiperidin]-4-ol], the cytotoxicity at 20 µM came to 10%.
For the molecule `COc1ccc(S(=O)(=O)c2cnc3ccc(SC)cc3c2NN2CCN(C)CC2)cc1` [compound 226, 3-((4-methoxyphenyl)sulfonyl)-N-(4-methylpiperazin-1-yl)-6-(methylthio)quinolin-4-amine], the cytotoxicity at 40 µM amounted to 10%.
On to `COc1ccc(S(=O)(=O)c2cnc3ccc([N+](=O)[O-])cc3c2N2CCC(N3CCCCC3)CC2)cc1` [compound 114, 4-([1,4′-bipiperidin]-1′-yl)-3-((4-methoxyphenyl)sulfonyl)-6-nitroquinoline], for which the cytotoxicity at 20 µM came out at 5%.
With `CCCCCCCCCCOc1ccc(S(=O)(=O)c2cnc3ccc([S+](C)[O-])cc3c2N2CCC(N3CCC(O)(c4ccccc4)CC3)CC2)cc1` (stereo not shown) [compound 270, 1′-(3-((4-(decyloxy)phenyl)sulfonyl)-6-(methylsulfinyl)quinolin-4-yl)-4-phenyl-[1,4′-bipiperidin]-4-ol], the cytotoxicity at 20 µM was found to be 50%.
In the case of `CCCCOc1ccc(S(=O)(=O)c2cnc3ccc([S+](C)[O-])cc3c2N2CCC(N3CCSCC3)CC2)cc1` (stereo not shown) [compound 245, 4-(1-(3-((4-butoxyphenyl)sulfonyl)-6-(methylsulfinyl)quinolin-4-yl)piperidin-4-yl)thiomorpholine], the cytotoxicity at 40 µM turned out to be 40%.
Consider `CCc1ccc(S(=O)(=O)c2cnc3ccc(OC(F)(F)F)cc3c2NCCCCCO)cc1` [compound 104, 5-((3-((4-ethylphenyl)sulfonyl)-6-(trifluoromethoxy)quinolin-4-yl)amino)pentan-1-ol], for which the cytotoxicity at 20 µM was 20%.
Still for that read-out and setting: next, `COc1ccc(S(=O)(=O)c2cnc3cc(OC)c(OC)cc3c2N2CCC(N3CCCCC3)CC2)cc1OC` [compound 122, 4-([1,4′-bipiperidin]-1′-yl)-3-((3,4-dimethoxyphenyl)sulfonyl)-6,7-dimethoxyquinoline]: 10%; `CCCCCCCOc1ccc(S(=O)(=O)c2cnc3ccc(SC)cc3c2N2CCC(N3CCN(CCO)CC3)CC2)cc1` [compound 250, 2-(4-(1-(3-((4-(heptyloxy)phenyl)sulfonyl)-6-(methylthio)quinolin-4-yl)piperidin-4-yl)piperazin-1-yl)ethan-1-ol]: 90%.
Take `CCN(CC)CCOc1ccc(S(=O)(=O)c2cnc3ccc(SC)cc3c2N2CCCN(C)CC2)cc1` [compound 242, N,N-diethyl-2-(4-((4-(4-methyl-1,4-diazepan-1-yl)-6-(methylthio)quinolin-3-yl)sulfonyl)phenoxy)ethan-1-amine]: the cytotoxicity at 40 µM amounted to 30%.
Still for that read-out and setting: in the case of `CCCCOc1ccc(S(=O)(=O)c2cnc3ccc(C(=O)OCC)cc3c2N2CCC(N3CCC(CO)CC3)CC2)cc1` [compound 178, ethyl 3-((4-butoxyphenyl)sulfonyl)-4-(4-(hydroxymethyl)-[1,4′-bipiperidin]-1′-yl)quinoline-6-carboxylate] it was 100%; in that of `CCCCOc1ccc(S(=O)(=O)c2cnc3ccc([S+](C)[O-])cc3c2N2CCC(N3CCN(CCO)CC3)CC2)cc1` (stereo not shown) [compound 236, 2-(4-(1-(3-((4-butoxyphenyl)sulfonyl)-6-(methylsulfinyl)quinolin-4-yl)piperidin-4-yl)piperazin-1-yl)ethan-1-ol], 5%.
On the same count and under the same terms, next, `COc1ccc(N2CCN(c3c(S(=O)(=O)c4ccc(OC)cc4)cnc4cc(OC)c(OC)cc34)CC2=O)cc1` [compound 318]: 30%; `COc1ccc(S(=O)(=O)c2cnc3cc(OC)c(OC)cc3c2N2C[C@@H]3C[C@H]2CN3C)cc1` [compound 306, 6,7-dimethoxy-3-((4-methoxyphenyl)sulfonyl)-4-((1S,4S)-5-methyl-2,5-diazabicyclo[2.2.1]heptan-2-yl)quinoline]: 40%.
Same read-out and setting: next, `CCCCOc1ccc(S(=O)(=O)c2cnc3ccc(SC)cc3c2N2CCC(N3CCC(O)CC3)CC2)cc1` [compound 162, 1′-(3-((4-butoxyphenyl)sulfonyl)-6-(methylthio)quinolin-4-yl)-[1,4′-bipiperidin]-4-ol]: 70%; `CCCCOc1ccc(S(=O)(=O)c2cnc3ccc(SC)cc3c2N2CCC(N3CCC(O)(c4ccccc4)CC3)CC2)cc1` [compound 232, 1′-(3-((4-butoxyphenyl)sulfonyl)-6-(methylthio)quinolin-4-yl)-4-phenyl-[1,4′-bipiperidin]-4-ol]: 10%.
Molecule `COc1ccc(S(=O)(=O)c2cnc3cc(OC)c(OC)cc3c2N2CCCN(c3nc4ccc(Cl)cc4s3)CC2)cc1` [compound 327, 6-chloro-2-(4-(6,7-dimethoxy-3-((4-methoxyphenyl)sulfonyl)quinolin-4-yl)-1,4-diazepan-1-yl)benzo[d]thiazole] displayed a Cell death (Conc. 40 μm) of 20%.
As to `CCCCOc1ccc(S(=O)(=O)c2cnc3ccc(OC(F)(F)F)cc3c2N2CC[S+]([O-])CC2)cc1` [compound 197, 4-(3-((4-butoxyphenyl)sulfonyl)-6-(trifluoromethoxy)quinolin-4-yl)thiomorpholine 1-oxide], the cytotoxicity at 40 µM was found to be 20%.
On to `CC(C)CCCC(C)CCOc1ccc(S(=O)(=O)c2cnc3ccc([S+](C)[O-])cc3c2N2CCC(N3CCN(CCO)CC3)CC2)cc1` (stereo not shown) [compound 284, 2-(4-(1-(3-((4-((3,7-dimethyloctyl)oxy)phenyl)sulfonyl)-6-(methylsulfinyl)quinolin-4-yl)piperidin-4-yl)piperazin-1-yl)ethan-1-ol], for which the cytotoxicity at 10 µM came to 10%.
For the setting “Conc. 20 μm”, `CCc1ccc(S(=O)(=O)c2cnc3ccc(OC(F)(F)F)cc3c2-n2cnnn2)cc1` [compound 125, 3-((4-ethylphenyl)sulfonyl)-4-(1H-tetrazol-1-yl)-6-(trifluoromethoxy)quinoline] showed a Cell death of 10%.
